According to US11034658B2, “Pyridinyl pyrazoles as modulators of RORγT” (Janssen Pharmaceutica NV, priority 2018, dated 2021):

Legend:
[1] = biological target: human RORγt ligand binding domain (RORγt LBD) (Homo sapiens (Human), UniProt P51449); test: RORγt ThermoFluor assay
[2] = biological target: full-length human RORγt (GAL4-DBD-RORγt fusion) in HEK293T cells (Homo sapiens (Human), UniProt P51449); test: RORγt (full-length human) reporter assay, conditions A or B; format: cell-based; settings: for IC50: HEK293T cells, read-out: RORγt (FL) Reporter Assay A or B, IC50; for inhibition at 3 µM / inhibition at 1 µM: HEK-293T, read-out: RORγt (FL) Reporter Assay A or B, % inhibition; for inhibition at 3 µM: 3 μM compound concentration (footnote *); for inhibition at 1 µM: 1 μM compound concentration (footnote ***)
How it was run: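 HEK293T cells expressing GAL4-DBD-RORγt fusion (96- or 384-well formats, DMEM/10% FBS) exposed to compound overnight (16–20 h). Firefly luciferase normalized to DMSO and saturating reference compound, then to Renilla; IC50 from dose curve, % inhibition versus DMSO.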

Sequence of human RORγt ligand binding domain (RORγt LBD) (P51449 other isoform, or with tags, fused parts or gaps): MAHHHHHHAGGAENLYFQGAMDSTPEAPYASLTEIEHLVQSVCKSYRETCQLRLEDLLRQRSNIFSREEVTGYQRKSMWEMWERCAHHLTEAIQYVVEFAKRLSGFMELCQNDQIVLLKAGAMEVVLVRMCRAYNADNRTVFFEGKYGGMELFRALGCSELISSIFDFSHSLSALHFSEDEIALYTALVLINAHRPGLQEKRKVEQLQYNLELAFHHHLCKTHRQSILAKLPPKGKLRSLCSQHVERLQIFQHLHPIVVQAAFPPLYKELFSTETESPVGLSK
Sequence of full-length human RORγt (GAL4-DBD-RORγt fusion) in HEK293T cells (P51449 other isoform, or with tags, fused parts or gaps): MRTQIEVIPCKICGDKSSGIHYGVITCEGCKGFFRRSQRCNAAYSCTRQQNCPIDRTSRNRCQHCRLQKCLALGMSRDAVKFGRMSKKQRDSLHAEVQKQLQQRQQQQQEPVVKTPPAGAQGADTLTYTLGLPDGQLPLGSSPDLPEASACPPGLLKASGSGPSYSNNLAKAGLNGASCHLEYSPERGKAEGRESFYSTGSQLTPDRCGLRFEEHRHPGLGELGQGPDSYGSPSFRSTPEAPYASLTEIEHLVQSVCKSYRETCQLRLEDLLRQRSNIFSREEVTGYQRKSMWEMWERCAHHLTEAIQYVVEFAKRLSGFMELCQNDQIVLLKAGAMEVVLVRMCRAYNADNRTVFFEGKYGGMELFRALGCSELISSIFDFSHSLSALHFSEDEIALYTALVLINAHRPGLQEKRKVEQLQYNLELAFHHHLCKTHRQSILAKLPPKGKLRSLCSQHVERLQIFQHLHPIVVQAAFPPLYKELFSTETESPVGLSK

SMILES	Kd [1] [nM]	IC50 [2] [nM]	inhibition at 3 µM [2] [%]	inhibition at 1 µM [2] [%]
Cn1nc(C(=O)NC[C@H]2CC[C@H](S(C)(=O)=O)CC2)c(Cl)c1-c1cnc(CC(C)(C)C(F)(F)F)cc1OC(F)F [Example 30, 4-Chloro-5-(4-(difluoromethoxy)-6-(3,3,3-trifluoro-2,2-dimethylpropyl)pyridin-3-yl)-1-methyl-N-(((1r,4r)-4-(methylsulfonyl)cyclohexyl)methyl)-1H-pyrazole-3-carboxamide]	10	100	98	
CCn1nc(C(=O)NC[C@H]2CC[C@H](S(C)(=O)=O)CC2)c(Cl)c1-c1cnc(CCCC(F)(F)F)cc1OC(F)F [Example 32, 4-Chloro-5-(4-(difluoromethoxy)-6-(4,4,4-trifluorobutyl)pyridin-3-yl)-1-ethyl-N-(((1r,4r)-4-(methylsulfonyl)cyclohexyl)methyl)-1H-pyrazole-3-carboxamide]	18	54	129	
CCn1nc(C(=O)NC[C@]2(O)CC[C@@H](S(C)(=O)=O)CC2)c(Cl)c1-c1cnc(OCC(C)(C)C(F)(F)F)cc1OC [Example 36, 4-Chloro-1-ethyl-N-(((1s,4s)-1-hydroxy-4-(methylsulfonyl)cyclohexyl)methyl)-5-(4-methoxy-6-(3,3,3-trifluoro-2,2-dimethylpropoxy)pyridin-3-yl)-1H-pyrazole-3-carboxamide]	20	33	104	
CCn1nc(C(=O)NC[C@]2(O)CC[C@@H](S(C)(=O)=O)CC2)c(C)c1-c1cnc(CC(C)(C)C(F)F)cc1OC(F)F [Example 42, 5-(6-(3,3-Difluoro-2,2-dimethylpropyl)-4-(difluoromethoxy)pyridin-3-yl)-1-ethyl-N-(((1s,4s)-1-hydroxy-4-(methylsulfonyl)cyclohexyl)methyl)-4-methyl-1H-pyrazole-3-carboxamide]	35	430	95	
CCn1nc(C(=O)NC[C@]2(O)CC[C@@H](S(C)(=O)=O)CC2)c(Cl)c1-c1ccc(CC(C)(C)C(F)(F)F)nc1OC(F)F [Example 46, 4-Chloro-5-(2-(difluoromethoxy)-6-(3,3,3-trifluoro-2,2-dimethylpropyl)pyridin-3-yl)-1-ethyl-N-(((1s,4s)-1-hydroxy-4-(methylsulfonyl)cyclohexyl)methyl)-1H-pyrazole-3-carboxamide]	0.66	89	97	
CCn1nc(C(=O)NC[C@H]2CC[C@H](S(C)(=O)=O)CC2)c(C)c1-c1ccc(CC(C)(C)C(F)(F)F)nc1OC(F)F [Example 49, 5-(2-(Difluoromethoxy)-6-(3,3,3-trifluoro-2,2-dimethylpropyl)pyridin-3-yl)-1-ethyl-4-methyl-N-(((1r,4r)-4-(methylsulfonyl)cyclohexyl)methyl)-1H-pyrazole-3-carboxamide]	0.28	6.4	106	
CCn1nc(C(=O)NC[C@]2(O)CC[C@@H](S(C)(=O)=O)CC2)c(C)c1-c1ccc(CC(C)(C)C(F)(F)F)nc1OC(F)F [Example 50, 5-(2-(Difluoromethoxy)-6-(3,3,3-trifluoro-2,2-dimethylpropyl)pyridin-3-yl)-1-ethyl-N-(((1s,4s)-1-hydroxy-4-(methylsulfonyl)cyclohexyl)methyl)-4-methyl-1H-pyrazole-3-carboxamide]	1.3	20		100
CCn1nc(C(=O)NC[C@]2(O)CC[C@@H](S(C)(=O)=O)CC2)c(Cl)c1-c1ncc(CC(C)(C)C(F)(F)F)cc1OC(F)F [Example 53, 4-Chloro-5-(3-(difluoromethoxy)-5-(3,3,3-trifluoro-2,2-dimethylpropyl)pyridin-2-yl)-1-ethyl-N-(((1s,4s)-1-hydroxy-4-(methylsulfonyl)cyclohexyl)methyl)-1H-pyrazole-3-carboxamide]	18	250	83	
CCc1cc(CC(C)(C)C(F)(F)F)ncc1-c1c(Cl)c(C(=O)NC[C@]2(O)CC[C@@H](S(C)(=O)=O)CC2)nn1CC [Example 55, 4-Chloro-1-ethyl-5-(4-ethyl-6-(3,3,3-trifluoro-2,2-dimethylpropyl)pyridin-3-yl)-N-(((1s,4s)-1-hydroxy-4-(methylsulfonyl)cyclohexyl)methyl)-1H-pyrazole-3-carboxamide]	30	280	78	

The remaining lines, values ahead:

Kd [1] [nM]	IC50 [2] [nM]	inhibition at 3 µM [2] [%]	inhibition at 1 µM [2] [%]	SMILES
47	130	20		CCn1nc(C(=O)NC[C@]2(O)CC[C@@H](S(C)(=O)=O)CC2)c(Cl)c1-c1cnc(CC(C)(C)C(F)(F)F)cc1C(F)F [Example 27, 4-Chloro-5-(4-(difluoromethyl)-6-(3,3,3-trifluoro-2,2-dimethylpropyl)pyridin-3-yl)-1-ethyl-N-(((1s,4s)-1-hydroxy-4-(methylsulfonyl)cyclohexyl)methyl)-1H-pyrazole-3-carboxamide]
97	2	76		CCn1nc(C(=O)NC[C@]2(O)CC[C@@H](S(C)(=O)=O)CC2)c(C)c1-c1cnc(CC(C)(C)C(F)(F)F)cc1C(F)F [Example 28, 5-(4-(Difluoromethyl)-6-(3,3,3-trifluoro-2,2-dimethylpropyl)pyridin-3-yl)-1-ethyl-N-(((1s,4s)-1-hydroxy-4-(methylsulfonyl)cyclohexyl)methyl)-4-methyl-1H-pyrazole-3-carboxamide]
26	160		100	Cc1c(C(=O)NC[C@H]2CC[C@H](S(C)(=O)=O)CC2)nn(C)c1-c1cnc(CC(C)(C)C(F)(F)F)cc1OC(F)F [Example 31]
62	1100	66		CCn1nc(C(=O)NC[C@]2(O)CC[C@@H](S(C)(=O)=O)CC2)c(Cl)c1-c1cnc(CCCC(F)(F)F)cc1OC(F)F [Example 33, 4-Chloro-5-(4-(difluoromethoxy)-6-(4,4,4-trifluorobutyl)pyridin-3-yl)-1-ethyl-N-(((1s,4s)-1-hydroxy-4-(methylsulfonyl)cyclohexyl)methyl)-1H-pyrazole-3-carboxamide]
34	58		92	CCn1nc(C(=O)NC[C@H]2CC[C@H](S(C)(=O)=O)CC2)c(C)c1-c1cnc(CCCC(F)(F)F)cc1OC(F)F [Example 34, 5-(4-(Difluoromethoxy)-6-(4,4,4-trifluorobutyl)pyridin-3-yl)-1-ethyl-4-methyl-N-(((1r,4r)-4-(methylsulfonyl)cyclohexyl)methyl)-1H-pyrazole-3-carboxamide]
100	63		76	CCn1nc(C(=O)NC[C@]2(O)CC[C@@H](S(C)(=O)=O)CC2)c(C)c1-c1cnc(CCCC(F)(F)F)cc1OC(F)F [Example 35, 5-(4-(Difluoromethoxy)-6-(4,4,4-trifluorobutyl)pyridin-3-yl)-1-ethyl-N-(((1s,4s)-1-hydroxy-4-(methylsulfonyl)cyclohexyl)methyl)-4-methyl-1H-pyrazole-3-carboxamide]
15	220	88		CCn1nc(C(=O)NC[C@]2(O)CC[C@@H](S(C)(=O)=O)CC2)c(Cl)c1-c1cnc(CC(C)(C)C(F)F)cc1OC(F)F [Example 38, 4-Chloro-5-(6-(3,3-difluoro-2,2-dimethylpropyl)-4-(difluoromethoxy)pyridin-3-yl)-1-ethyl-N-(((1s,4s)-1-hydroxy-4-(methylsulfonyl)cyclohexyl)methyl)-1H-pyrazole-3-carboxamide]
6.9	45	102		CCn1nc(C(=O)NC[C@H]2CC[C@H](S(C)(=O)=O)CC2)c(C)c1-c1cnc(CC(C)(C)C(F)F)cc1OC(F)F [Example 41, 5-(6-(3,3-Difluoro-2,2-dimethylpropyl)-4-(difluoromethoxy)pyridin-3-yl)-1-ethyl-4-methyl-N-(((1r,4r)-4-(methylsulfonyl)cyclohexyl)methyl)-1H-pyrazole-3-carboxamide]
0.35	11	86		CCn1nc(C(=O)NC[C@H]2CC[C@H](S(C)(=O)=O)CC2)c(Cl)c1-c1ccc(CC(C)(C)C(F)(F)F)nc1OC(F)F [Example 45, 4-Chloro-5-(2-(difluoromethoxy)-6-(3,3,3-trifluoro-2,2-dimethylpropyl)pyridin-3-yl)-1-ethyl-N-(((1r,4r)-4-(methylsulfonyl)cyclohexyl)methyl)-1H-pyrazole-3-carboxamide]
4.7	58	85		CCn1nc(C(=O)NC[C@H]2CC[C@H](S(C)(=O)=O)CC2)c(Cl)c1-c1ncc(CC(C)(C)C(F)(F)F)cc1OC(F)F [Example 52, 4-Chloro-5-(3-(difluoromethoxy)-5-(3,3,3-trifluoro-2,2-dimethylpropyl)pyridin-2-yl)-1-ethyl-N-(((1r,4r)-4-(methylsulfonyl)cyclohexyl)methyl)-1H-pyrazole-3-carboxamide]
13	240	42		CCn1nc(C(=O)NC[C@H]2CC[C@H](S(C)(=O)=O)CC2)c(Cl)c1-c1cnc(CC(C)(C)C(F)(F)F)cc1C(C)(F)F [Example 54, 4-Chloro-5-(4-(1,1-difluoroethyl)-6-(3,3,3-trifluoro-2,2-dimethylpropyl)pyridin-3-yl)-1-ethyl-N-(((1r,4r)-4-(methylsulfonyl)cyclohexyl)methyl)-1H-pyrazole-3-carboxamide]
